Our source for the collision cross section and GC retention time values is the supplement of paper PMC11923942.

The structures appear in SMILES notation.

Data set [1] can be described thus: collision cross section (N2, base ion); higher = larger ion cross section. Summed up: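 Hydrophobic organic contaminant standards were run on an Agilent 8890 GC with a DB-5MS UI column. It was coupled through a positive-mode atmospheric pressure chemical ionization source, under dry or wet conditions, to a Waters cyclic ion mobility time-of-flight mass spectrometer in high-definition MSE mode. Mobility separation used N2 drift gas in one-pass mode, calibrated with a calibrant mix. Collision cross section was taken for the base ion (sometimes a fragment), with Progenesis QI lockmass correction and peak picking.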

Data set [2] can be described thus: GC retention time (DB-5MS, GC-APCI); higher = later elution. How it is done: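 Standards of hydrophobic organic contaminants were analysed by GC-APCI (positive mode, dry or wet source conditions) coupled to cyclic ion mobility-QTOF MS. CCS was measured for the base ion (sometimes a fragment ion) in N2 drift gas (one-pass mode, calibrated with a Waters 22-compound mix). 5 mL/min).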

Compound `ClC1C(Cl)C(Cl)C(Cl)C(Cl)C1Cl` (stereo not drawn) [α-Hexachlorocyclohexane] (APCI source condition: Dry, base ion: [M-H2Cl3]+) returned a collision cross section in data set [1] of 137.25 Å². This compound showed a GC retention time in data set [2] of 14.5 min.

`O=S1OC[C@@H]2[C@H](CO1)[C@]1(Cl)C(Cl)=C(Cl)[C@]2(Cl)C1(Cl)Cl` (stereo partly drawn) [β-Endosulfan] (APCI source condition: Wet, base ion: [M+H]+) registered a collision cross section in data set [1] of 162.35 Å². In addition, the GC retention time in data set [2] is 20 min.

Take `Cl[C@H]1[C@H](Cl)[C@@H](Cl)[C@H](Cl)[C@@H](Cl)[C@@H]1Cl` [β-Hexachlorocyclohexane] (APCI source condition: Dry, base ion: [M-H2Cl3]+): the collision cross section in data set [1] was 138.19 Å². Also, the GC retention time in data set [2] came to 15.1 min.

In the case of `ClC1C(Cl)C(Cl)C(Cl)C(Cl)C1Cl` (stereo not drawn) [γ-Hexachlorocyclohexane] (APCI source condition: Dry, base ion: [M-H2Cl3]+), the collision cross section in data set [1] worked out at 137.38 Å². This compound gave a GC retention time in data set [2] of 15.2 min.
